Assay results published in PMC12336229, “Peptide-mimetics derived from leucyl-tRNA synthetase are potential agents for the therapy of mt-tRNA related diseases” (Frontiers in Pharmacology, 2025).

Legend:
Adult C57BL/6 male mice [1] = test: Tolerability in animals (i.v., scores, body weight, grid-hanging test); format: in vivo
Protocol: Sixty adult C57BL/6 male mice were initially included in the study. Twenty animals were dedicated to in vivo/ex vivo biodistribution of the radiolabelled PMT ^64Cu-PMT. The evaluation was carried out at four time points: 1, 3, 24 and 48 h. Forty animals were dedicated to tolerability studies with increasing PMT concentration: 1, 5, 10 and 50 mg/kg PMT or saline, i. v. (n = 10 per group). […] Therefore, only three groups of ten animals were dedicated to the tolerability test, and fifty C57BL/6 male mice were employed for the current study in total. […] Due to the rapidity of death, and the hydrophobic character of the C-terminal region of the PMT (see the Discussion section), it is possible that PMT aggregates obstructed one or more small vessels, causing micro-infarctions in vital organs (e.g., lung, heart, brain).
Adult C57BL/6 male mice were used to determine the general tolerability of i. v. administered PMT and identify the Maximum Tolerated Dose (MTD). To this purpose, animals were divided into four groups (n = 10 each) and injected in a tail vein with either saline (controls) or PMT freshly dissolved in saline at three scalar doses (1, 5 or 10 mg/kg). Each group was randomly divided in two subgroups (n = 5 each). Blood ocular withdrawal was performed at 1 h and 48 h post-injection for each subgroup, respectively. During this procedure, animals were anaesthetized with isoflurane (2% in medical air) and monitored until awakening.
The effect of PMT administration was evaluated every 2 days by observation of the animals and application of the following criteria and scores (see Supplementary Table S1): body weight loss (score: 1–5); coat conditions (score: 1–3); dehydration (score: 1–3); respiration (score: 1–3); spontaneous behaviour (score: 0–5); reaction to handling (score: 0–3) (IACUC of the San Raffaele Research Institute and FELASA Glossary 2015 ([Fentener van Vlissingen et al., 2015]).
The observation was carried out for 2 weeks post peptide injection. At the end, all the animals underwent a grid-hanging test to measure muscular strength performances after PMT or saline treatment ([Gayi et al., 2018]).
After a period of habituation to the metallic grid, mice were placed individually on top of a metallic grid (40 × 40 cm, 1.3 cm square mesh) suspended 50 cm above an empty cage. The grid was turned upside down and latency to fall was measured up to a fixed limit of 600 s. Each mouse performed three trials and the longest holding time (s) among them was multiplied by the animal’s body weight (g) to calculate Holding impulse (g*s).
(§1) After the test, mice were sacrificed under general anaesthesia (4% isoflurane in medical air) by cardiac puncture to withdraw blood, brain, heart, liver, kidney, spleen, and lymph nodes, which were collected into tubes with buffered formalin and stored at +4°C.
Data on PMT tolerability in animals (i.e., body mass monitoring and grip-hanging test) are expressed as mean ± SD and analysed using one-way ANOVA corrected for multiple comparison Turkey test.

[2] = tested on: control cells (WT and L-8344 cybrids); test: Cell viability in galactose medium (Trypan blue dye exclusion); format: cell-based, human; settings: WT and L-8344 cells; 24 h galactose medium
Protocol: (§2) Previously established osteosarcoma-derived (143B.TK-) cybrid cell lines from patients, which bear either the m.3243A>G mutation in mt-tRNA^Leu(UUR) or the m.8344A>G mutation in mt-tRNA^Lys and controls ([Perli et al., 2014]; [Perli et al., 2016]; [Perli et al., 2020]) were used.
(§3) Cybrid cells were cultured in Dulbecco’s modified Eagle’s medium (DMEM), supplemented with 4.5 g/L D-glucose, 10% foetal bovine serum (FBS), 2 mM L-glutamine, 50 μg/ML uridine, 100 U/mL penicillin, and […] (referred to as glucose medium) in a humidified atmosphere of 95% air and 5% CO2 at 37°C. For cell viability experiments, cells were grown either in glucose medium or in glucose-free DMEM, supplemented with 5 mM galactose, […], and 10% FBS (referred to as galactose medium). The reason for using the latter medium is that a pathological phenotype can be appreciated in cells growing on galactose, which forces cells to rely on mitochondrial respiration, but not in cells growing on glucose.
(§4) To assess growth capability, cells were harvested and seeded at 30 × 10^4 in 60 mm dishes in glucose medium for 24 h with the addition of one of the compounds. Cells were switched in glucose or galactose and, after 24 h, cell viability was measured by the Trypan blue dye exclusion assay. Cells were harvested with 0.25% trypsin and 0.2% EDTA, washed, suspended in PBS in the presence of Trypan blue solution (Sigma–Aldrich) at 1:1 ratio and counted using a hemocytometer. The number of viable cells in the galactose medium was expressed as a percentage of the number of cells in glucose medium.

m.3243A>G mutant cybrids [3] = test: as above; format: cell-based, human; settings: 5 µM; 24 h galactose medium; compared with non-treated mutant cells; at least three independent experiments
Protocol: as §2, §3, §4

[4] = tested on: m.8344A>G mutant cybrids (H-8344); test: as above; format: cell-based, human; settings: 5 µM; 24 h galactose medium; compared with non-treated mutant cells; at least three independent experiments
Protocol: as §2, §3, §4

Adult C57BL/6 male mice [5] = test: Morphological analysis of selected organs (hematoxylin and eosin); format: in vivo, mouse; settings: 1, 5 and 10 mg/kg i.v.; hematoxylin and eosin sections; treated vs controls
Protocol: as §1
At the end of the tolerability test, tissues collected from animals injected with saline (n = 5) or treated with 1, 5 and 10 mg/kg of PMT (n = 10), were formalin-fixed and paraffin-embedded. Five µm-thick sections were obtained from the paraffin blocks and stained with hematoxylin and eosin for histologic examination.

[6] = tested on: control cells (WT and L-8344 cybrids); test: Respirometry assay, oxygen consumption rate (Clark type oxygen electrode); format: cell-based, human; settings: after 36 h, treated/vehicle ratio
Protocol: as §2
(§5) Oxygen consumption rate (OCR) of cybrids was evaluated with Clark type oxygen electrode (Hansatech Instruments, Norfolk, United Kingdom). After cybrid incubation with compounds at 5 µM concentration, both control and mutant cybrids were maintained in glucose medium for 36 h, then OCR was measured in intact cells (3 × 10^6) in 1 mL DMEM lacking glucose supplemented with […].

m.3243A>G mutant cybrids [7] = test: as above; format: cell-based, human; settings: 5 µM; after 36 h of treatment; compared with vehicle mutant cells
Protocol: as §2, §5

[8] = tested on: m.8344A>G mutant cybrids (H-8344); test: as above; format: cell-based, human; settings: 5 µM; after 36 h of treatment; compared with vehicle mutant cells
Protocol: as §2, §5

## CC[C@@H](C)[C@@H](NC(=O)[C@@H](CC(C)C)NC(=O)[C@@H](C)NC(=O)[C@H](NC(=O)[C@@H](CCCNC(=N)N)NC(=O)[C@H]1CCCN1C(=O)[C@@H](CO)NC(=O)[C@@H](CC(C)C)NC(=O)[C@@H](Cc1ccccc1)NC(=O)[C@@H](CO)NC(=O)[C@@H](CCCCN)NC(=O)[C@H](N)CCCCN)[C@H](C)O)C(=O)N[C@H](CC(N)=O)C(=O)N[C@H](Cc1ccccc1)C(=O)N[C@H](CC(C)C)C(=O)N[C@@H](C(N)=O)C(C)C [PMT]
Adult C57BL/6 male mice [1]; 1, 5 and 10 mg/kg, wild-type mice, 14 days of observation
  Tolerability after a single i.v. acute administration: well tolerated
Adult C57BL/6 male mice [1]; mouse, in vivo
  Mice with decrease of body weight (score 4): 1/10
  Mice with mild tachypnoea (score 1): 5/10
  Mice with slight decrease of body weight (score 1): 5/10
  Mice with slight decrease of body weight (score 1–2): 5/10
  Outcome of the highest dose: died immediately after the administration
Adult C57BL/6 male mice [1]; mouse, in vivo, iv
  Safe dosage: up to 10 mg/kg
Adult C57BL/6 male mice [1]; mouse, in vivo, iv, 50 mg/kg
  Necropsy finding: did not highlight any obvious macroscopic effect
[2]
  Cell viability of control cells: do not affect
m.3243A>G mutant cybrids [3]
  Cell viability (viable cells in galactose as % of glucose medium): significant improvement of cell viability
[4]
  Cell viability (viable cells in galactose as % of glucose medium): significant improvement of cell viability
Adult C57BL/6 male mice [5]
  Morphological change in organs or tissues: did not reveal any morphological change
[6]
  Oxygen consumption of control cells: do not affect
m.3243A>G mutant cybrids [7]
  Oxygen consumption rate: significant increase
[8]
  Oxygen consumption rate: significant increase
